{
  "source": "patent US9216181B2",
  "about": "(Southwest Research Institute, priority 2011, dated 2015)",
  "key": {"BMP2": {"system": "BMP2", "test": "Quantitative PCR (TaqMan, ΔΔCt) of BMP2 in human mesenchymal stem cells", "format": "cell-based", "details": "for fold induction at 10 µM: Homo sapiens, Mesenchymal stem cells, read-out: q-PCR Fold increase", "procedure": "Human mesenchymal stem cells (LONZA, Catalog PT2501) were maintained in Mesenchymal stem cells basal media (MSCBM CAT#PT-3238). Early passage cells were plated in triplicate at 2×10^4 cells/cm^2 using six well tissue culture plates and grown in humidified 5% CO2 at 37° C. for 24 hours. Spent media was replaced by assay media of drugs to be tested in same media as above at 10 μM final concentration. Untreated cells were used as the control group. Total RNA were prepared using either TRI Reagent (Ambion, Cat. 9738), for subsequent TaqMan gene expression qPCR of BMP2. RNA concentration and integrity was assessed by absorbance 260/280 and electrophoresis in 1% Agarose with formaldehyde loading dye. For TaqMan gene expression, cDNA was synthesized from 2 μg of total RNA using the High Capacity cDNA Reverse Transcription Kit (Applied Biosystems, Cat. 4368814). The resulting cDNA were diluted 1:100 for TaqMan and amplified by real-time quantitative PCR. Gene-specific fluorescent labeled TaqMan primers for FAM-BMP2 (Applied Biosystems, Hs00154192.m1) and TaqMan reference VIC-18S ribosomal RNA (Applied Biosystems, 4310893E) were used to target gene of interest. A cocktail of universal master mix (Applied Biosystems, 4369016) were prepared individually for both set of primers which contained Taq Polymerase, dNTPs, and buffer. Template cDNA's were added separately to respective individual wells in triplicate samples. The PCR were performed on StepOne Plus Real Time System instrument (Applied Biosystems). The amplification program consisted of 1 cycle of 95° C. with 10 minute hold (hot start) followed by 50 cycles of 95° C. with 15 second annealing hold and 1 minute 60° C. specified acquisition hold. The Ct value of endogenous reference gene (i.e. 18 s) was used to control for input RNA and then used to normalize target gene (i.e. BMP2) tested from the same cDNA sample to calculate the Δ Ct, and then calibrated to an internal reference sample. Change in gene expression was determined by the expression ΔΔCt relative method.\n18 compounds were confirmed positive by the more stringent qPCR techniques. […] Included in the tables is the target or common medical use for each compounds."}, "BMP-2": {"system": "BMP-2", "test": "Real time PCR of BMP-2 gene expression in human MSC (Cells-to-Ct)", "format": "cell-based", "details": "BMP-2 mRNA, hMSC, 5-10 μM, 24 hours, vs untreated", "procedure": "Early passage human mesenchymal stem cells (MSC) were thawed from one frozen cryo-vial and seeded into two T-75 tissue culture flasks and incubated at 37° C. for 48 hours in Alpha MEM with 10% FBS. After three days and one re-feeding, the cells were trypsinized and re-suspended in pre-warmed media at 5×10^4 cells/mL to provide 5,000 cells per well in a 96 well plate and incubated overnight at 37° C. in 5% CO2.\nEach well was washed in cold PBS, lysed at room temperature for five minutes, and stop reagent added to each well to stop the lysis reaction. The final lysate was kept cold at 4° C. and used immediately as the RNA template for the reverse transcription cDNA synthesis following the TAQMAN GENE EXPRESSION CELLS TO CT KIT instructions.\nThe cDNA synthesis was prepared on a separate sterile 96-well PCR plate and performed on the Step One Plus Real Time PCR System instrument (Applied Biosystems) with the programming set at 37° C. for 60 minutes and an inactivation hold of 95° C. for five minutes. The final cDNA reaction was kept cold and used as the template for the TAQMAN GENE Real-Time PCR step following the recommended instructions for TAQMAN GENE EXPRESSION CELLS TO CT KIT assay. […] Template cDNA's were added separately to respective individual wells in replicate samples.\nThe PCR was performed on the STEPONEPLUS Real-Time System instrument (Applied Biosystems). The amplification program consisted of 1 cycle of 95° C. with 10 minute hold (hot start) and followed by 50 cycles of 95° C. with 15-second annealing hold and 1-minute 60° C. specified acquisition hold."}, "[1]": {"details": "BMP2 mRNA, hMSC, 10 μM, vs untreated, 18S reference, BIOMOL library (Table 2)"}, "[2]": {"details": "BMP2 mRNA, hMSC, 10 μM, vs untreated, 18S reference, positive control compounds (Table 1)"}, "[3]": {"details": "positive control compounds (Table 1)"}},
  "note": "Counter-ions that a name gives are not always drawn. Like-named read-outs stand apart in the source and are kept apart here.",
  "data": [
    {"smiles": "N=C(N)N1CCc2ccccc2C1", "note": "[Debrisoquin sulfate]", "values": [
      {"measurement": "fold induction at 10 µM", "setting": "BMP2; [1]", "value": 6.2},
      {"measurement": "RT PCR Fold increase", "setting": "BMP-2; BIOMOL library (Table 2)", "value": 8.2, "unit": "fold"}
    ]},
    {"smiles": "CC(=O)O[C@@]12CO[C@@H]1C[C@H](O)[C@@]1(C)C(=O)[C@H](O)C3=C(C)[C@@H](OC(=O)[C@H](O)[C@@H](NC(=O)OC(C)(C)C)c4ccccc4)C[C@@](O)([C@@H](OC(=O)c4ccccc4)[C@H]21)C3(C)C", "note": "[Docetaxil]", "values": [
      {"measurement": "q-PCR Fold increase", "setting": "BMP2; [2]", "value": 2.7, "unit": "fold"},
      {"measurement": "RT PCR Fold increase", "setting": "BMP-2; [3]", "value": 11.0, "unit": "fold"}
    ]},
    {"smiles": "COC(=O)Nc1nc2ccc(Sc3ccccc3)cc2[nH]1", "note": "[Fenbendazole]", "values": [
      {"measurement": "fold induction at 10 µM", "setting": "BMP2; [1]", "value": 2},
      {"measurement": "RT PCR Fold increase", "setting": "BMP-2; BIOMOL library (Table 2)", "value": 6.6, "unit": "fold"}
    ]},
    {"smiles": "CC(C)C(=O)Nc1ccc([N+](=O)[O-])c(C(F)(F)F)c1", "note": "[Flutamide]", "values": [
      {"measurement": "fold induction at 10 µM", "setting": "BMP2; [1]", "value": 1.6},
      {"measurement": "RT PCR Fold increase", "setting": "BMP-2; BIOMOL library (Table 2)", "value": 9.7, "unit": "fold"}
    ]},
    {"smiles": "CC(C)n1c(/C=C/C(O)CC(O)CC(=O)[O-])c(-c2ccc(F)cc2)c2ccccc21.[Na+]", "note": "(stereo not drawn) [Fluvastatin Na]", "values": [
      {"measurement": "q-PCR Fold increase", "setting": "BMP2; [2]", "value": 7.8, "unit": "fold"},
      {"measurement": "RT PCR Fold increase", "setting": "BMP-2; [3]", "value": 3.2, "unit": "fold"}
    ]},
    {"smiles": "CNCCCC12CCC(c3ccccc31)c1ccccc12", "note": "[Maprotiline]", "values": [
      {"measurement": "fold induction at 10 µM", "setting": "BMP2; [1]", "value": 2.4},
      {"measurement": "RT PCR Fold increase", "setting": "BMP-2; BIOMOL library (Table 2)", "value": 3.6, "unit": "fold"}
    ]},
    {"smiles": "CC[C@H](C)C(=O)O[C@H]1CCC=C2C=C[C@H](C)[C@H](CC[C@@H]3C[C@@H](O)CC(=O)O3)[C@H]21", "note": "[Mevastatin]", "values": [
      {"measurement": "fold induction at 10 µM", "setting": "BMP2; [2]", "value": 0.9},
      {"measurement": "RT PCR Fold increase", "setting": "BMP-2; [3]", "value": 3.1, "unit": "fold"}
    ]},
    {"smiles": "CCCCN1C[C@H](O)[C@@H](O)[C@H](O)[C@H]1CO", "note": "[Miglustat]", "values": [
      {"measurement": "fold induction at 10 µM", "setting": "BMP2; [1]", "value": 6.6},
      {"measurement": "RT PCR Fold increase", "setting": "BMP-2; BIOMOL library (Table 2)", "value": 4.9, "unit": "fold"}
    ]},
    {"smiles": "COc1cc2nc(N3CCN(C(=O)c4ccco4)CC3)nc(N)c2cc1OC", "note": "[Prazosin]", "values": [
      {"measurement": "fold induction at 10 µM", "setting": "BMP2; [1]", "value": 4},
      {"measurement": "RT PCR Fold increase", "setting": "BMP-2; BIOMOL library (Table 2)", "value": 6.8, "unit": "fold"}
    ]},
    {"smiles": "COc1ccc(C[C@H](N)C(=O)N[C@H]2[C@@H](O)[C@H](n3cnc4c(N(C)C)ncnc43)O[C@@H]2CO)cc1", "note": "[Puromycin]", "values": [
      {"measurement": "fold induction at 10 µM", "setting": "BMP2; [1]", "value": 54.6},
      {"measurement": "RT PCR Fold increase", "setting": "BMP-2; BIOMOL library (Table 2)", "value": 122.3, "unit": "fold"}
    ]},
    {"smiles": "CC(C)=CC[C@@H](O)C1=CC(=O)c2c(O)ccc(O)c2C1=O", "note": "[Shikonin]", "values": [
      {"measurement": "fold induction at 10 µM", "setting": "BMP2", "value": 1.5},
      {"measurement": "RT PCR Fold increase", "setting": "BMP-2; [3]", "value": 23.5, "unit": "fold"}
    ]},
    {"smiles": "CCC(C)(C)C(=O)O[C@H]1C[C@@H](C)C=C2C=C[C@H](C)[C@H](CC[C@@H]3C[C@@H](O)CC(=O)O3)[C@H]21", "note": "[Simvastatin]", "values": [
      {"measurement": "fold induction at 10 µM", "setting": "BMP2", "value": 2.3},
      {"measurement": "RT PCR Fold increase", "setting": "BMP-2; [3]", "value": 4.2, "unit": "fold"}
    ]},
    {"smiles": "CC(=O)O[C@H]1C(=O)[C@@]2(C)[C@H]([C@H](OC(=O)c3ccccc3)[C@]3(O)C[C@H](OC(=O)[C@H](O)[C@@H](NC(=O)c4ccccc4)c4ccccc4)C(C)=C1C3(C)C)[C@]1(OC(C)=O)CO[C@@H]1C[C@@H]2O", "note": "[Taxol]", "values": [
      {"measurement": "fold induction at 10 µM", "setting": "BMP2; [2]", "value": 4},
      {"measurement": "RT PCR Fold increase", "setting": "BMP-2; [3]", "value": 3.7, "unit": "fold"}
    ]},
    {"smiles": "CC(C)(C)c1ccc(C(O)CCCN2CCC(C(O)(c3ccccc3)c3ccccc3)CC2)cc1", "note": "(stereo not drawn) [Terfenadine]", "values": [
      {"measurement": "fold induction at 10 µM", "setting": "BMP2; [1]", "value": 10.4},
      {"measurement": "RT PCR Fold increase", "setting": "BMP-2; BIOMOL library (Table 2)", "value": 13.9, "unit": "fold"}
    ]},
    {"smiles": "CC[C@]1(O)C[C@@H]2CN(CCc3c([nH]c4ccccc34)[C@@](C(=O)OC)(c3cc4c(cc3OC)N(C)[C@H]3[C@@](O)(C(N)=O)[C@H](O)[C@]5(CC)C=CCN6CC[C@]43[C@@H]65)C2)C1", "note": "[Vindesine]", "values": [
      {"measurement": "fold induction at 10 µM", "setting": "BMP2; [2]", "value": 1.8},
      {"measurement": "RT PCR Fold increase", "setting": "BMP-2; [3]", "value": 12.4, "unit": "fold"}
    ]}
  ]
}
